The values that follow come from article PMC10497752, “Heparins are potent inhibitors of ectonucleotide pyrophosphatase/phospho-diesterase-1 (NPP1) – a promising target for the immunotherapy of cancer” (Frontiers in Immunology, 2023).

For orientation: half-life means the time needed for the level to fall by half in the phase considered. One may read the inhibition as the percentage by which the read-out fell short of the control. Read a high inhibition as a strong effect.

In one series the target is T1, human CD73 (Homo sapiens, UniProt P21589).
T1 sequence (P21589 27-574): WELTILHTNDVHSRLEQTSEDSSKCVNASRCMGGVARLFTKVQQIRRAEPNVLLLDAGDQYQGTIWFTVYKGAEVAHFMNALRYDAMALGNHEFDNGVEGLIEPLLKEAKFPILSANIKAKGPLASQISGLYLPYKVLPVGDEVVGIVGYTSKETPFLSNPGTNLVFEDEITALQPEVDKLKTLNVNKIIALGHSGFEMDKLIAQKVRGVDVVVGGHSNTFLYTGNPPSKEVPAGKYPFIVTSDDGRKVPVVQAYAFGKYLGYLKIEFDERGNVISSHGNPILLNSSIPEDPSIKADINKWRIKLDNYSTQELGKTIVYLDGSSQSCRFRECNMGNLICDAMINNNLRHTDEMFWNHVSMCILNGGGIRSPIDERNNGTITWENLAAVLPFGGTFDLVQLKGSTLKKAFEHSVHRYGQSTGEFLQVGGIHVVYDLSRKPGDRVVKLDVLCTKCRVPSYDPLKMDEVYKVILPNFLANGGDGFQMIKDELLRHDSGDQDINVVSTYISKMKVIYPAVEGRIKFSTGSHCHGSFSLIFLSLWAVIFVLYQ
The series can be described thus: CD73 radioactive assay, [2,8-3H]AMP. The series is classed as biochemical. As to conditions: 20 µg/mL (12 µM). As for the experimental part:
The assay was performed essentially as previously described ([32]). The enzymatic reaction was performed by mixing 0.36 ng of human CD73 ([33]) with test compound in assay buffer (25 mM Tris, 140 mM sodium chloride, 25 mM sodium dihydrogen phosphate, pH 7.4) and 5 µM of [2,8-^3H]AMP [(specific activity 7.4x10^8 Bq/mmol (20 mCi/mmol)), American Radio-labeled Chemicals, MO, USA, distributed by Hartmann Analytic, Germany]. Compound 7 was used at 800 µg/mL and compound 6 at 20 µg/mL for the selectivity test, while for initial screening compound 5 was tested at a concentration of 55 µM and 6 at 30 µM, and 1 and 2 were tested at 50 IU/mL ( Supplementary Figure 1 ). The enzymatic reaction was performed for 25 min at 37°C in a shaking water bath. Then, 500 µL of cold precipitation buffer (100 mM lanthanum chloride, 100 mM sodium acetate, pH 4.00) was added to stop the reaction and to facilitate precipitation of free phosphate and unconverted [2,8-^3H]-AMP. […] After washing each reaction vial three times with 400 µL of cold (4°C) demineralized water, 5 mL of the scintillation cocktail (ULTIMA Gold XR, PerkinElmer, MA, USA) was added and the radioactivity was measured by scintillation counting (TRICARB 2900 TR, Packard/PerkinElmer; counting efficacy: 49-52%). […]

The conditions of series [1]: cited from earlier work.
In series [2] the test system is U87 human glioblastoma cells. The series can be described thus: U87 cell-based assay, extracellular adenosine formation from ATP (CE-UV). As to conditions: U-87 MG, 300 µM ATP, 3 h, DP and EHNA, 10 µg/mL (~ 6 µM). The procedure: U87 human glioblastoma cells were grown in cell culture flasks until reaching a fully covered confluent cell layer. Cells were cultivated at 37°C and 5% CO2 in DMEM with additions of 10% FCS, 1% penicillin/streptomycin and 1% L-glutamine. The cells were rinsed with phosphate-buffered saline (PBS) and detached with EDTA. Thereafter, they were counted by a Cell Counter CASY® 1 Model TT (Schärfe System GmbH, Reutlingen, Germany) to retrieve the number of viable cells, and washed three times with PBS before they were resuspended in Krebs-HEPES buffer at a concentration of 10^6 cells/mL ([37]). Then, 1 mL of cell suspension was transferred into a 24-well plate. The cells were pretreated with the nucleoside transport inhibitor dipyridamole (20 µM) for 30 min ([38]). Adenosine deaminase (ADA) activity was inhibited by the addition of 1 µM of the inhibitor EHNA (erythro-9-amino-β-hexyl-α-methyl-9H-purine-9-ethanol hydrochloride) ([39]). Heparins, their non-anticoagulative analogs, and the known ectonucleotidase inhibitor PSB-POM-141 ([20]) were added. The samples were incubated with 300 µM of ATP for 3 h at 37°C and 5% CO2. […]
The percentage of inhibition of adenosine format ion in U87 cell supernatants by heparin derivatives was calculated from the conversion rate as follows: […]

Turning to `CO[C@H]1O[C@H](COS(=O)(=O)O)[C@@H](O[C@@H]2O[C@@H](C(=O)O)[C@@H](O[C@H]3O[C@H](COS(=O)(=O)O)[C@@H](O[C@@H]4O[C@H](C(=O)O)[C@@H](O[C@H]5O[C@H](COS(=O)(=O)O)[C@@H](O)[C@H](O)[C@H]5NS(=O)(=O)O)[C@H](O)[C@H]4O)[C@H](OS(=O)(=O)O)[C@H]3NS(=O)(=O)O)[C@H](O)[C@H]2OS(=O)(=O)O)[C@H](O)[C@H]1NS(=O)(=O)O` [Compound 6, Fondaparinux], the “CD73 inhibition, selectivity study” value at human CD73 is “no effect”. In addition, in series [1], the half-life is on record as 17 h. The inhibition at 10 µg/mL in series [2] came out at 60%.
